Inhibition and IC50 data for 5 compounds are collected here from ChEMBL document CHEMBL3600359, “Verruculides A and B, two new protein tyrosine phosphatase 1B inhibitors from an Indonesian ascidian-derived Penicillium verruculosum” (Bioorg Med Chem Lett, 2015).

Calls of active or inactive are those of the source. No cut-off for these calls is given here.

For test [1], the target named is T1, Tyrosine-protein phosphatase non-receptor type 1 (Homo sapiens) (UniProt P18031).
T1 sequence (whole entry): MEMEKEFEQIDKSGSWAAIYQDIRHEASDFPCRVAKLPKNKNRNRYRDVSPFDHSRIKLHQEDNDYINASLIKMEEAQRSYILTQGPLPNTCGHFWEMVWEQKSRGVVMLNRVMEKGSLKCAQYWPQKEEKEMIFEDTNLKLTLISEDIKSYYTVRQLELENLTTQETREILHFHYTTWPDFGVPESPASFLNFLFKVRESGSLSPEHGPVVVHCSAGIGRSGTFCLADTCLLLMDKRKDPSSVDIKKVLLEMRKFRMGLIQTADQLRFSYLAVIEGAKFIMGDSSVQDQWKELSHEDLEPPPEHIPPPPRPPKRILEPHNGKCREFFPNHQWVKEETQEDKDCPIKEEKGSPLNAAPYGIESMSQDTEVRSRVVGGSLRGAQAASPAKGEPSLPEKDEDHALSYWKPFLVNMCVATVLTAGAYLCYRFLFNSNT
The following applies: 23.1 uM.
Description: Inhibition of PTP1B (unknown origin) at 23.1 uM

For test [2], the target named is T2, Tyrosine-protein phosphatase non-receptor type 1 (Homo sapiens, UniProt P18031).
T2 sequence (P18031 whole entry): T1 sequence (whole entry)
The experiment in a line: Inhibition of PTP1B (unknown origin).

Test [3] has as its target T1, Tyrosine-protein phosphatase non-receptor type 1 (Homo sapiens). The experiment in a line: Inhibition of PTP1B (unknown origin) at 20.7 uM.

The compound `C/C(=C\Cc1c(O)cc(O)c2c1C[C@@H](C)OC2=O)CC/C=C(\C)CCC(O)C(C)(C)O` (stereo not given in full) came in with an inhibition in test [1] of 40%. `C[C@@H]1Cc2c3c(cc(O)c2C(=O)O1)O[C@@]1(C)CC[C@H]2C(C)(C)C(=O)C=C[C@]2(C)[C@@H]1C3`: the IC50 in test [2] turned out to be 8.4 µM. As to `CC(=O)O[C@@H]1c2c3c(cc(O)c2C(=O)O[C@@H]1C)O[C@@]1(C)[C@@H](O)C[C@H]2C(C)(C)C(=O)C=C[C@]2(C)[C@@H]1C3`, in test [3], the inhibition entry is “inactive”. Consider `C[C@@H]1Cc2c3c(cc(O)c2C(=O)O1)O[C@@]1(C)[C@@H](O)C[C@H]2C(C)(C)C(=O)CC[C@]2(C)[C@@H]1C3`, for which it took 14.9 µM to reach half-maximal inhibition in test [2] (IC50). On to `C[C@H]1OC(=O)c2c(O)cc3c(c2[C@H]1O)C[C@H]1[C@@]2(C)C=CC(=O)C(C)(C)[C@@H]2C[C@H](O)[C@]1(C)O3`, for which the IC50 in test [2] was 8.5 µM.

As usually defined, the inhibition is the relative decrease from the control value, in per cent. As usually defined, the IC50 is the midpoint of a concentration-inhibition curve.
